Data published in patent publication US9371336B2, “Compounds for treating spinal muscular atrophy” (PTC Therapeutics Inc., priority 2012, dated 2016).

Assays:
[1] = tested on: SMN2 minigene mRNA (SMN2-A minigene construct); assay: SMN2 minigene mRNA splicing RT-qPCR assay in cultured cells; format: cell-based, human; details: Homo sapiens, HEK293-H; HEK293H cells stably transfected with SMN2-A minigene, 24 hours, 7-point concentration data; concentration giving 1.5-fold SMN2 full length mRNA relative to vehicle-treated cells; read-out: EC1.5x for production of full length SMN2 mRNA
Protocol: The reverse transcription-quantitative PCR-based (RT-qPCR) assay is used to quantify the level of the full length SMN2 minigene mRNA containing SMN2 exon 7 in a HEK293H cell line stably transfected with said minigene and treated with a test compound.
HEK293H cells stably transfected with the SMN2-A minigene construct described above (10,000 cells/well) are seeded in 200 μL of cell culture medium (DMEM plus 10% FBS, with 200 μg/mL hygromycin) in 96-well flat-bottom plates and the plate is immediately swirled to ensure proper dispersal of cells, forming an even monolayer of cells. Cells are allowed to attach for at least 4-6 hours. Test compounds are serially diluted 3.16-fold in 100% DMSO to generate a 7-point concentration curve. A solution of test compound (1 μL, 200× in DMSO) is added to each cell-containing well and the plate is incubated for 24 hours in a cell culture incubator (37° C., 5% CO2, 100% relative humidity). Two replicates are prepared for each test compound concentration. The cells are then lysed in Cells-To-Ct lysis buffer and the lysate is stored at −80° C.
Primer SMN Forward A (SEQ ID NO. 1) hybridizes to a nucleotide sequence in exon 7 (nucleotide 22 to nucleotide 40), primer SMN Reverse A (SEQ ID NO. 2) hybridizes to a nucleotide sequence in the coding sequence of Firefly luciferase, SMN Probe A (SEQ ID NO. 3) hybridizes to a nucleotide sequence in exon 7 (nucleotide 50 to nucleotide 54) and exon 8 (nucleotide 1 to nucleotide 21). The combination of these three oligonucleotides detects only SMN1 or SMN2 minigenes (RT-qPCR) and will not detect endogenous SMN1 or SMN2 genes.
The SMN forward and reverse primers are used at final concentrations of 0.4 μM. The SMN probe is used at a final concentration of 0.15 μM. The GAPDH primers are used at final concentrations of 0.2 μM and the probe at 0.15 μM.
The SMN2-minigene GAPDH mix (15 μL total volume) is prepared by combining 7.5 μL of 2×RT-PCR buffer, 0.4 μL of 25×RT-PCR enzyme mix, 0.75 μL of 20×GAPDH primer-probe mix, 4.0075 μL of water, 2 μL of 10-fold diluted cell lysate, 0.06 μL of 100 μM SMN forward primer, 0.06 μL of 100 μM SMN reverse primer, and 0.225 μL of 100 μM SMN probe.
PCR is carried out at the following temperatures for the indicated time: Step 1: 48° C. (15 min); Step 2: 95° C. (10 min); Step 3: 95° C. (15 sec); Step 4: 60° C. (1 min); then repeat Steps 3 and 4 for a total of 40 cycles.
Each reaction mixture contains both SMN2-A minigene and GAPDH primers/probe sets (multiplex design), allowing simultaneous measurement of the levels of two transcripts.
Two SMN spliced products are generated from the SMN2 minigene. The first spliced product containing exon 7, corresponding to SMN2 full length mRNA, is referred to herein using the term “SMN2 minigene FL.” The second spliced product lacking exon 7 is referred to herein using the term “SMN2 minigene Δ7.”
The increase of SMN2 minigene FL mRNA relative to that in cells treated with vehicle control is determined from real-time PCR data using a modified ΔΔCt method (as described in Livak and Schmittgen, Methods, 2001, 25:402-8). The amplification efficiency (E) is calculated from the slope of the amplification curve for SMN2 minigene FL and GAPDH individually. The abundances of SMN2 minigene FL and GAPDH are then calculated as (1+E)^−Ct, where Ct is the threshold value for each amplicon. The abundance of SMN2 minigene FL is normalized to GAPDH abundance. The normalized SMN2 minigene FL abundance from test compound-treated samples is then divided by normalized SMN2 minigene FL abundance from vehicle-treated cells to determine the level of SMN2 FL mRNA relative to vehicle control.

Smn protein = Smn protein assay (HTRF) in cultured cells (SMA patient fibroblasts GM03813); format: cell-based, human; details: 48 hours; for EC1.5x for Smn protein expression: SMA patient fibroblast cells (GM03813), HTRF, 7-point concentration data, concentration producing 1.5 times Smn protein vs DMSO vehicle control; for maximum fold (Fold) increase of Smn protein: SMA patient fibroblast cells, 7-point concentration curve, relative to vehicle control
Protocol: The Smn HTRF (homogeneous time resolved fluorescence) assay is used to quantify the level of Smn protein in SMA patient fibroblast cells treated with test compounds.
Cells are thawed and cultured in DMEM-10% FBS for 72 hours. Cells are trypsinized, counted and re-suspended to a concentration of 25,000 cells/mL in DMEM-10% FBS. The cell suspension is plated at 5,000 cells per well in a 96 well microtiter plate and incubated for 3 to 5 hours. […] Test compounds are serially diluted 3.16-fold in 100% DMSO to generate a 7-point concentration curve. 1 μL of test compound solution is transferred to cell-containing wells and cells are incubated for 48 hours in a cell culture incubator (37° C., 5% CO2, 100% relative humidity). Triplicate samples are set up for each test compound concentration. After 48 hours, the supernatant is removed from the wells and 25 μL of the RIPA lysis buffer, containing protease inhibitors, is added to the wells and incubated with shaking at room temperature for 1 hour. 25 μL of the diluent is added and then 35 μL of the resulting lysate is transferred to a 384-well plate, where each well contains 5 μL of the antibody solution (1:100 dilution of anti-SMN d2 and anti-SMN kryptate in SMN reconstitution buffer). The plate is centrifuged for 1 minute to bring the solution to the bottom of the wells, then incubated overnight at room temperature. Fluorescence for each well of the plate at 665 nm and 620 nm is measured on an EnVision multilabel plate reader (Perkin-Elmer).
The normalized fluorescence signal is calculated for each sample, Blank and vehicle control well by dividing the signal at 665 nm by the signal at 620 nm. Normalizing the signal accounts for possible fluorescence quenching due to the matrix effect of the lysate. The ΔF value (a measurement of Smn protein abundance as a percent value) for each sample well is calculated by subtracting the normalized average fluorescence for the Blank control wells from the normalized fluorescence for each sample well, then dividing this difference by the normalized average fluorescence for the Blank control wells and multiplying the resulting value by 100. The ΔF value for each sample well represents the Smn protein abundance from test compound-treated samples. The ΔF value for each sample well is divided by the ΔF value for the vehicle control wells to calculate the fold increase in Smn protein abundance relative to the vehicle control.

melting point [°C] | Compound | EC (1.5-fold) [1] [µM] | EC1.5x for Smn protein expression (Smn protein) | maximum fold (Fold) increase of Smn protein (Smn protein)
258 to 260 | O=c1oc2nc(N3CCNCC3)ccc2cc1-c1nc2ccccc2s1 [Cpd 1, 3-(1,3-benzothiazol-2-yl)-7-(piperazin-1-yl)-2H-pyrano[2,3-b]pyridin-2-one] | 0.1 to 0.3 | *** (an EC1.5× between >0.3 μM and ≦1 μM is indicated by three stars (***)) | *** (a fold increase between >1.35 and ≦1.5 is indicated by three stars (***))
247 to 250 | CN1CCN(c2ccc3cc(-c4nc5ccccc5s4)c(=O)oc3n2)CC1 [Cpd 3, 3-(1,3-benzothiazol-2-yl)-7-(4-methylpiperazin-1-yl)-2H-pyrano[2,3-b]pyridin-2-one] | 0.3 to 1 | * (An EC1.5× for Smn protein expression between >3 μM and ≦10 μM is indicated by one star (*)) | *** (a fold increase between >1.35 and ≦1.5 is indicated by three stars (***))
262 to 266 | O=c1oc2nc(N3CCN(Cc4ccccc4O)CC3)ccc2cc1-c1nc2c(Cl)cccc2s1 [Cpd 6, 3-(4-chloro-1,3-benzothiazol-2-yl)-7-[4-(2-hydroxybenzyl)piperazin-1-yl]-2H-pyrano[2,3-b]pyridin-2-one] | 3 to 30 | – | ** (a fold increase between >1.2 and ≦1.35 is indicated by two stars (**))
266 to 270 | Cl.O=c1oc2cc(N3CCNCC3)ncc2cc1-c1nc2c(Cl)cccc2s1 [Cpd 9, 3-(4-chloro-1,3-benzothiazol-2-yl)-7-(piperazin-1-yl)-2H-pyrano[3,2-c]pyridin-2-one hydrochloride] | 0.1 to 0.3 | – | * (A maximum fold increase ≦1.2 is indicated by one star (*))
258 to 262 | O=c1oc2nc(N3CCN(CCO)CC3)ccc2cc1-c1nc2c(Cl)cccc2s1 [Cpd 10, 3-(4-chloro-1,3-benzothiazol-2-yl)-7-[4-(2-hydroxyethyl)piperazin-1-yl]-2H-pyrano[2,3-b]pyridin-2-one] | 0.3 to 1 | *** (an EC1.5× between >0.3 μM and ≦1 μM is indicated by three stars (***)) | *** (a fold increase between >1.35 and ≦1.5 is indicated by three stars (***))
285 to 288 | CN1CCN(c2cc3oc(=O)c(-c4nc5c(Cl)cccc5s4)cc3cn2)CC1 [Cpd 11, 3-(4-chloro-1,3-benzothiazol-2-yl)-7-(4-methylpiperazin-1-yl)-2H-pyrano[3,2-c]pyridin-2-one] | 0.3 to 1 | – | * (A maximum fold increase ≦1.2 is indicated by one star (*))
266 to 269 | CCN1CCN(c2ccc3cc(-c4nc5c(Cl)cccc5s4)c(=O)oc3n2)CC1 [Cpd 12, 3-(4-chloro-1,3-benzothiazol-2-yl)-7-(4-ethylpiperazin-1-yl)-2H-pyrano[2,3-b]pyridin-2-one] | 0.3 to 1 | – | *** (a fold increase between >1.35 and ≦1.5 is indicated by three stars (***))
– | Cl.O=c1oc2nc(N3CCNCC3)ccc2cc1-c1cn2cccnc2n1 [Cpd 112, 3-(imidazo[1,2-a]pyrimidin-2-yl)-7-(piperazin-1-yl)-2H-pyrano[2,3-b]pyridin-2-one hydrochloride] | 0.1 to 0.3 | ** (an EC1.5× between >1 and ≦3 μM is indicated by two stars (**)) | *** (a fold increase between >1.35 and ≦1.5 is indicated by three stars (***))
– | Cc1ccc2nc(-c3cc4ccc(N5C[C@@H]6C[C@H]5CN6)nc4oc3=O)cn2c1 [Cpd 124, 7-[(1S,4S)-2,5-diazabicyclo[2.2.1]hept-2-yl]-3-(6-methylimidazo[1,2-a]pyridin-2-yl)-2H-pyrano[2,3-b]pyridin-2-one] | 0.1 to 0.3 | *** (an EC1.5× between >0.3 μM and ≦1 μM is indicated by three stars (***)) | **** (a fold increase between >1.5 and ≦1.65 is indicated by four stars (****))
– | Cc1cn2cc(-c3cc4ccc(N5C[C@@H]6C[C@H]5CN6)nc4oc3=O)nc2c(C)n1 [Cpd 135] | ≤ 0.1 | *** (an EC1.5× between >0.3 μM and ≦1 μM is indicated by three stars (***)) | ***** (a fold increase >1.65 is indicated by five stars (*****))
– | Cc1cc(F)c2nc(-c3cc4ccc(N5C[C@@H]6C[C@H]5CN6)nc4oc3=O)cn2c1 [Cpd 136, 7-[(1S,4S)-2,5-diazabicyclo[2.2.1]hept-2-yl]-3-(8-fluoro-6-methylimidazo[1,2-a]pyridin-2-yl)-2H-pyrano[2,3-b]pyridin-2-one] | ≤ 0.1 | *** (an EC1.5× between >0.3 μM and ≦1 μM is indicated by three stars (***)) | *** (a fold increase between >1.35 and ≦1.5 is indicated by three stars (***))
– | Cc1cn2cc(-c3cc4ccc(N5CCN[C@@H](C)C5)nc4oc3=O)nc2c(C)n1 [Cpd 146, 3-(6,8-dimethylimidazo[1,2-a]pyrazin-2-yl)-7-[(3S)-3-methylpiperazin-1-yl]-2H-pyrano[2,3-b]pyridin-2-one] | ≤ 0.1 | **** (an EC1.5×≦0.3 μM is indicated by four stars (****)) | **** (a fold increase between >1.5 and ≦1.65 is indicated by four stars (****))
